Source: ChEMBL document CHEMBL5303764, “Data for DCP probe BI-3812” (2023)
Active and inactive are the calls of the source. The rule behind the calls is not given here.

Legend:
[1] = target: 5-hydroxytryptamine receptor 3A (Homo sapiens) (UniProt P46098); test: 5HT3/H Eurofins SafetyScreen44 (BI); details: Compound concentration 10.0 uM
[2] = target: Alpha-2C adrenergic receptor (Homo sapiens) (UniProt P18825); details: Compound concentration 10.0 uM
[3] = target: Beta-1 adrenergic receptor (Homo sapiens) (UniProt P08588); details: Compound concentration 10.0 uM
[4] = target: Muscarinic acetylcholine receptor M1 (Homo sapiens) (UniProt P11229); test: M1/H Eurofins SafetyScreen44 (BI); details: Compound concentration 10.0 uM
[5] = target: Dual specificity mitogen-activated protein kinase kinase 6 (Homo sapiens) (UniProt P52564); test: MAP2K6 Invitrogen Lab (UK) kinase screen (BI); details: Compound concentration 1.0 uM
[6] = target: Alpha-2A adrenergic receptor (Homo sapiens) (UniProt P08913); test: ALPHA2A/HU Eurofins SafetyScreen44 (BI); details: Compound concentration 10.0 uM
[7] = target: Delta-type opioid receptor (Homo sapiens) (UniProt P41143); test: DELTA2/H Eurofins SafetyScreen44 (BI); details: Compound concentration 10.0 uM
[8] = target: Sigma non-opioid intracellular receptor 1 (Homo sapiens) (UniProt Q99720); details: Compound concentration 10.0 uM
[9] = target: Mitogen-activated protein kinase 9 (Homo sapiens) (UniProt P45984); test: MAPK9 Invitrogen Lab (UK) kinase screen (BI); details: Compound concentration 1.0 uM
[10] = target: BDNF/NT-3 growth factors receptor (Homo sapiens) (UniProt Q16620); test: NTRK2 Invitrogen Lab (UK) kinase screen (BI); details: Compound concentration 1.0 uM
[11] = target: Vascular endothelial growth factor receptor 2 (Homo sapiens) (UniProt P35968); test: KDR Invitrogen Lab (UK) kinase screen (BI); details: Compound concentration 1.0 uM
[12] = target: Histamine H3 receptor (Homo sapiens) (UniProt Q9Y5N1); details: Compound concentration 10.0 uM
[13] = target: Tyrosine-protein kinase ABL1 (Homo sapiens) (UniProt P00519); test: ABL1 Invitrogen Lab (UK) kinase screen (BI); details: Compound concentration 1.0 uM
[14] = target: AMP-activated protein kinase (AMPK) alpha-1/beta-1/gamma-1 (Homo sapiens) (UniProt P54619+Q9Y478+Q13131); test: AMPK A1B1G1 Invitrogen Lab (UK) kinase screen (BI); type: protein-complex assay; details: Compound concentration 1.0 uM
[15] = target: B-cell lymphoma 6 protein (Homo sapiens, UniProt P41182); test: SPR (BCL6), Ontario institute for cancer research
[16] = target: Beta-3 adrenergic receptor (Homo sapiens) (UniProt P13945); details: Compound concentration 10.0 uM
[17] = target: RAF proto-oncogene serine/threonine-protein kinase (Homo sapiens) (UniProt P04049); test: RAF1 Invitrogen Lab (UK) kinase screen (BI); details: Compound concentration 1.0 uM
[18] = target: 3-phosphoinositide-dependent protein kinase 1 (Homo sapiens) (UniProt O15530); test: PDK1 Invitrogen Lab (UK) kinase screen (BI); details: Compound concentration 1.0 uM
[19] = target: D(2) dopamine receptor (Homo sapiens) (UniProt P14416); test: D2SH_AGON Eurofins SafetyScreen44 (BI); details: filed as agonist, Compound concentration 10.0 uM

Chain of Alpha-2C adrenergic receptor (Homo sapiens) (P18825 whole entry): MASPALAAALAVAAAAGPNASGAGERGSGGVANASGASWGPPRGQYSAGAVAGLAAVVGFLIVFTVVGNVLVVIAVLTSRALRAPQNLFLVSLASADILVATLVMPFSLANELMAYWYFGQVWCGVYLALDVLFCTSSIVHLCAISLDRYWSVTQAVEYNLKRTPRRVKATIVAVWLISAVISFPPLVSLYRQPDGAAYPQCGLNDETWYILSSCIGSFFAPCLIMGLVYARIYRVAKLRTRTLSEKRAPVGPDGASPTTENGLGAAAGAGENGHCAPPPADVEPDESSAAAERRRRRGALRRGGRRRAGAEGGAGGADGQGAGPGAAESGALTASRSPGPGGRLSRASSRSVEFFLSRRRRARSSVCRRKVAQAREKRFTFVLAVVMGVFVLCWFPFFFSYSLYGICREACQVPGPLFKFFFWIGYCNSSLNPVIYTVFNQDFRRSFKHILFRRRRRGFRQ
Chain of Beta-3 adrenergic receptor (Homo sapiens) (P13945 whole entry, looked up): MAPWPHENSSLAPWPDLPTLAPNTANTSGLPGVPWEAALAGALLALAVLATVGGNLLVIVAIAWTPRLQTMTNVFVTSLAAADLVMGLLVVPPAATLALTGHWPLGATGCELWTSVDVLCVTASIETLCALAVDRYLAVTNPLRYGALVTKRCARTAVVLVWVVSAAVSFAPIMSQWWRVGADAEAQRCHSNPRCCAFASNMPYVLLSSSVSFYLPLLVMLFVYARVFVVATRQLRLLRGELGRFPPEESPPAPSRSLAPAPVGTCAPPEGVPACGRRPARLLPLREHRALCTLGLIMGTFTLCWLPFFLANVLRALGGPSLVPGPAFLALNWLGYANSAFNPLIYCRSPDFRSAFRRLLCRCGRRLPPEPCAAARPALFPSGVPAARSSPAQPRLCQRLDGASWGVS
Chain of Sigma non-opioid intracellular receptor 1 (Homo sapiens) (Q99720 whole entry): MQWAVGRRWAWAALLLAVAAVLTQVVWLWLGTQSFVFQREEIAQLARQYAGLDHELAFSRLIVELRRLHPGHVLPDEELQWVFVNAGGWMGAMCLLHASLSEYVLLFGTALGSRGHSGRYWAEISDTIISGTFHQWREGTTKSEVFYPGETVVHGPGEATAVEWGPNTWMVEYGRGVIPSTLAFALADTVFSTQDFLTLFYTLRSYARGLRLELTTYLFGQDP
Chain of Beta-1 adrenergic receptor (Homo sapiens) (P08588 whole entry, looked up): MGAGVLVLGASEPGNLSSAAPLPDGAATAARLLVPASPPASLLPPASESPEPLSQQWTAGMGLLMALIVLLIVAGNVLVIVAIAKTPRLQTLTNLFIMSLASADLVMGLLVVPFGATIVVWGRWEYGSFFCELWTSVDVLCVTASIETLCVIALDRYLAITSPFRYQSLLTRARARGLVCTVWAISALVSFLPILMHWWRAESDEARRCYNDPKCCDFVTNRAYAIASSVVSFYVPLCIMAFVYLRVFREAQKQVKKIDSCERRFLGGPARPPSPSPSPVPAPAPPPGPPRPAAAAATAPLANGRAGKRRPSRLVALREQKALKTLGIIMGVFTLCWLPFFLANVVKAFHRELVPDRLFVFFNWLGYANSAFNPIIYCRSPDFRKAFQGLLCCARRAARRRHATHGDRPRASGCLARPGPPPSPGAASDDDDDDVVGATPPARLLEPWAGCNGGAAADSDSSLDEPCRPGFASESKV
Chain of Histamine H3 receptor (Homo sapiens) (Q9Y5N1 whole entry): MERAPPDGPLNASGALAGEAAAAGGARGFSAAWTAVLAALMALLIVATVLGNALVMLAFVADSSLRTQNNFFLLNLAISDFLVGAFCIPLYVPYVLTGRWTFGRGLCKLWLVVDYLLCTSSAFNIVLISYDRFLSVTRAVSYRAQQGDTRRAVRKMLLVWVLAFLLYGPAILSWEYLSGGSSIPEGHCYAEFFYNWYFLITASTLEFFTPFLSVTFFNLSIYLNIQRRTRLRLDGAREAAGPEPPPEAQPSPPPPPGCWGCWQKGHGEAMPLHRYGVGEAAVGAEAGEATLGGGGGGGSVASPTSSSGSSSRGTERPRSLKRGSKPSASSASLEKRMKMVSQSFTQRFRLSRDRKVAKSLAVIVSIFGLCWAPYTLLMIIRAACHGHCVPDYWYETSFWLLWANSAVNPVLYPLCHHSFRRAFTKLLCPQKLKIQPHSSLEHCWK
Chain of Alpha-2A adrenergic receptor (Homo sapiens) (P08913 whole entry): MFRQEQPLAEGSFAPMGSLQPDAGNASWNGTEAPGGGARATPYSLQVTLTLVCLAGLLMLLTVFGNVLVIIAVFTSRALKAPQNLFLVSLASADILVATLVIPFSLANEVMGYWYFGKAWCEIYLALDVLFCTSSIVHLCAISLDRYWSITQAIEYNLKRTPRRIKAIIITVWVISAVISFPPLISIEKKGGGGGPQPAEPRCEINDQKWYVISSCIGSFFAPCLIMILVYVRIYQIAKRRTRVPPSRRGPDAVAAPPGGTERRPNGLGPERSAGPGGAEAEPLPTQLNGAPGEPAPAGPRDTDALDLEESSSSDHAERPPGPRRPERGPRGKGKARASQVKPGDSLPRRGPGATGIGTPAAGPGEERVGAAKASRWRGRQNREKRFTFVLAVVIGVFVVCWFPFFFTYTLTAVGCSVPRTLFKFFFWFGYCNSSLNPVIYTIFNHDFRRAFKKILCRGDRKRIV
Chain of BDNF/NT-3 growth factors receptor (Homo sapiens) (Q16620 32-822 limits assumed): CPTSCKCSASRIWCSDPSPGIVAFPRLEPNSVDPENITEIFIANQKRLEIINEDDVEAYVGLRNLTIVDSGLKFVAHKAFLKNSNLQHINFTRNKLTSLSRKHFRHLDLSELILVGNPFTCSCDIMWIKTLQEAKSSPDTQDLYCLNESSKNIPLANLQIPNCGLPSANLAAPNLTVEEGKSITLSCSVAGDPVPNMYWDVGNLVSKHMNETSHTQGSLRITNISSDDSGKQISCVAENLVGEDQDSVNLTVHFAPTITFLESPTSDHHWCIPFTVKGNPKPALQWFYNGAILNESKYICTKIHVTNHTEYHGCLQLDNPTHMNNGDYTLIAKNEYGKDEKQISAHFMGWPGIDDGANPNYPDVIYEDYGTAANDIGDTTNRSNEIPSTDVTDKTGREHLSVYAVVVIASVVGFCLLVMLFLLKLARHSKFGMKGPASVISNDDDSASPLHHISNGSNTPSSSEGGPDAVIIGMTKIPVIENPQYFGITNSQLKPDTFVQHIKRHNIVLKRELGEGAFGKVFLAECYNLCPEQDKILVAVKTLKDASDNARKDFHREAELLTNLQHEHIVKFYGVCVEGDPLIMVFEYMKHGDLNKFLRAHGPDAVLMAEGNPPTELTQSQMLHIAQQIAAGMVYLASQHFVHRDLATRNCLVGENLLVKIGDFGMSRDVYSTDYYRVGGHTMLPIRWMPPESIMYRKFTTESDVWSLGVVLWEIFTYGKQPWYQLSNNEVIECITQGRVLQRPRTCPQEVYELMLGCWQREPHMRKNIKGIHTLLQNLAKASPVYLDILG
Chain of 3-phosphoinositide-dependent protein kinase 1 (Homo sapiens) (O15530 whole entry, looked up): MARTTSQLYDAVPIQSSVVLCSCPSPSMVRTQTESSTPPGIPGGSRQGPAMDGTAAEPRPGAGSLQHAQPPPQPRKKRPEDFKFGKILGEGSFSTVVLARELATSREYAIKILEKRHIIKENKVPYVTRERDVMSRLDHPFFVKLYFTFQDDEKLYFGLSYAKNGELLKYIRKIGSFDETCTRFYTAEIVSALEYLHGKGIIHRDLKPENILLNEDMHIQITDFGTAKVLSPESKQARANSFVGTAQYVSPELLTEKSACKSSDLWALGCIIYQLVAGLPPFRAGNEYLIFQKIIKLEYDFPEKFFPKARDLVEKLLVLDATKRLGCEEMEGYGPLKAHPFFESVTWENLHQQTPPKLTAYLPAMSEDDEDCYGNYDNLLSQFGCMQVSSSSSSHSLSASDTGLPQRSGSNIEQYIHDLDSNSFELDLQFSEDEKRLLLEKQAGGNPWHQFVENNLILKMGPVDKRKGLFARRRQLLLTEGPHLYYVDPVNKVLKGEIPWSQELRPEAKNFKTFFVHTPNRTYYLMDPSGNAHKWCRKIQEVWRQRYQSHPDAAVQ
Chain of Mitogen-activated protein kinase 9 (Homo sapiens) (P45984 whole entry, looked up): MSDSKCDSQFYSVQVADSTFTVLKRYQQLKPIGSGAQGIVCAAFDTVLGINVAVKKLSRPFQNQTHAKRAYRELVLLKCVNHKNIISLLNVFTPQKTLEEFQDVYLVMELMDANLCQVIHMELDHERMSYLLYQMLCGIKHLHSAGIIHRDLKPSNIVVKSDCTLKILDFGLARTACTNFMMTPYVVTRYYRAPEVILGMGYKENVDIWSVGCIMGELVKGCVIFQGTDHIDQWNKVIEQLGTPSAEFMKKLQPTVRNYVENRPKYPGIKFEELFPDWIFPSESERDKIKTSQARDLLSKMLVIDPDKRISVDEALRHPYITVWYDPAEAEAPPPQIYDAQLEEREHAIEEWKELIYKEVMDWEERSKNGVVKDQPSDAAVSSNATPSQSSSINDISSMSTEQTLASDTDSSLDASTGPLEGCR
Chain of 5-hydroxytryptamine receptor 3A (Homo sapiens) (P46098 whole entry): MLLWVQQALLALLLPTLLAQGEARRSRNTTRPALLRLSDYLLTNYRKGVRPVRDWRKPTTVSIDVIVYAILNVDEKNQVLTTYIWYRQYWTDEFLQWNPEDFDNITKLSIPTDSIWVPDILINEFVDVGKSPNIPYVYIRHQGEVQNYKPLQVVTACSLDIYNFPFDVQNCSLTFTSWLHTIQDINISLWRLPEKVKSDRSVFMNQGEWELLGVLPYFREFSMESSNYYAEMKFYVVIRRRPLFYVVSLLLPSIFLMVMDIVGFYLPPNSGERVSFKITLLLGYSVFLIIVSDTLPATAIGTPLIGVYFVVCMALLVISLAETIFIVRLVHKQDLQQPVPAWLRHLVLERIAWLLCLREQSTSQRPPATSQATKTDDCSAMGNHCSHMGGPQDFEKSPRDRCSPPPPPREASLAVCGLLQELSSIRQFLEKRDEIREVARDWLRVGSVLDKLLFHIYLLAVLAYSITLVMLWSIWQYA

## CNC(=O)COc1cc2cc(Nc3nc(N4CCC(C(=O)N(C)C)CC4)ncc3Cl)cc(OC)c2n(C)c1=O
[1]
  residual activity: 95%
[2]
  inhibition: 3.4%
[3]
  inhibition: -5.19%
[4]
  residual activity: 15%
[5]
  residual activity: 112%
[6]
  residual activity: 98%
[7]
  residual activity: 85%
[8]
  inhibition: 16.8%
[9]
  residual activity: 99%
[10]
  residual activity: 88%
[11]
  residual activity: 98%
[12]
  inhibition: 20.9%
[13]
  residual activity: 93%
[14]
  residual activity: 98%
[15]
  Kd: 2.57 nM (active)
[16]
  inhibition: 4.51%
[17]
  residual activity: 79%
[18]
  residual activity: 83%
[19]
  residual activity: 101%
